Experimental data taken from PubChem BioAssay (NCI).
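Five concentrations, 48 hours, 96-well plates. Abbreviation: GI50, concentration required for 50% inhibition of growth. TGI denotes the concentration required for complete inhibition of growth.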

System: ACHN renal
Assay: NCI tumour cell line growth inhibition, 48 h

Q: Which GI50 does the source give for `CN(C)CC[PH+](c1ccccc1)c1ccccc1.CN(C)CC[PH+](c1ccccc1)c1ccccc1.[Cl-].[Pd+2]` here?
A: The GI50 was > 100 µM.

Q: What about the TGI of the same compound?
A: The TGI was > 100 µM.

Q: Which TGI does the source give for `O=C(O)Cc1cc(Cl)ccc1O` here?
A: Its TGI is > 100 µM.

Q: For `Cc1nn(-c2ccc(Cl)cc2)c2nc3c(nc12)C(=O)c1ccccc1-3`, which GI50 is on record?
A: Its GI50 is > 100 µM.

Q: And the TGI?
A: Its TGI is > 100 µM.

Q: How did the GI50 turn out when `O=C(c1ccccc1)c1cc2ccccc2o1` was run?
A: Its GI50 is > 100 µM.

Q: What about the TGI of the same compound?
A: Its TGI is > 100 µM.

Q: Which results are given for `COc1ccc(C(=O)/C=C/c2cc(-c3cc(OC)c(OC)c(OC)c3)n[nH]2)cc1OC`?
A: GI50: 1.66 µM; TGI: 3.09 µM

Q: What does the source list for `C=C(C)[C@@H]1CC[C@]2(C)[C@H](CC=C3[C@@H]4CC(C)(C)CC[C@]4(C(N)=O)CC[C@]32C)[C@@]1(C)CCC#N`?
A: GI50: 3.01 µM; TGI: 51.2 µM

Q: With `CCCC(=O)Nc1cc2c3c(c1)CCCN3CCC2` as the compound, how does the TGI read?
A: The TGI was > 10 µM.

Q: What does the source list for `COc1cc(-c2cc(-c3cc4c([nH]c5ccccc54)c(-c4cc(OC)c(OC)c(OC)c4)n3)cc(-c3ccccc3)n2)cc(OC)c1OC`?
A: GI50: 4.57 µM; TGI: > 100 µM

Q: For `O=C1C=CC(=O)c2cc3cc(CBr)ccc3cc21`, which GI50 is on record?
A: The GI50 was 1.82 µM.

Q: What about the TGI of the same compound?
A: Its TGI is 3.71 µM.

Q: How did the GI50 turn out when `COc1cc(F)ccc1-c1ncnc(Nc2cccc(CS(C)(=N)=O)c2)n1` (stereo not drawn) was run?
A: The GI50 was 0.476 µM.

Q: And the TGI?
A: The TGI was > 100 µM.

Q: With `Cc1c2c(C#N)nccc2c(C)c2c1c1ccccc1n2Cc1ccccc1` as the compound, how does the TGI read?
A: Its TGI is > 100 µM.

Q: Which results are given for `CCOC(=O)Nc1ccc(-c2nc(-c3cccc(OCCN4CCOCC4)c3)c(-c3ccnc(Br)c3)[nH]2)cc1`?
A: GI50: 3.06 µM; TGI: > 100 µM

Q: How did the GI50 turn out when `O=C(CC1(O)C(=O)N(Cc2ccccc2)c2ccc(F)cc21)c1ccc(C(=O)NCC2CCC3(CC2)OOC2(CCCCC2)OO3)cc1` (stereo not drawn) was run?
A: Its GI50 is 0.179 µM.

Q: What about the TGI of the same compound?
A: The TGI was 0.363 µM.

Q: How did the GI50 turn out when `O=C(CSc1nc2ccccc2nc1-c1ccccc1)Nc1ccc(F)cc1` was run?
A: The GI50 was 41.9 µM.

Q: And the TGI?
A: Its TGI is > 100 µM.

Q: Which results are given for `Cn1cc(-c2csc(-c3c[nH]c4ccc(F)cc34)n2)c2cnccc21`?
A: GI50: 1.74 µM; TGI: 3.12 µM

System: HCT-116 colon
Assay: NCI tumour cell line growth inhibition, 48 h

Q: For `CN(C)CC[PH+](c1ccccc1)c1ccccc1.CN(C)CC[PH+](c1ccccc1)c1ccccc1.[Cl-].[Pd+2]`, which GI50 is on record?
A: Its GI50 is > 100 µM.

Q: What about the TGI of the same compound?
A: Its TGI is > 100 µM.

Q: How did the TGI turn out when `O=C(O)Cc1cc(Cl)ccc1O` was run?
A: Its TGI is > 100 µM.

Q: How did the GI50 turn out when `O=C(c1ccccc1)c1cc2ccccc2o1` was run?
A: The GI50 was 62.7 µM.

Q: And the TGI?
A: The TGI was > 100 µM.

Q: How did the TGI turn out when `CCCC(=O)Nc1cc2c3c(c1)CCCN3CCC2` was run?
A: The TGI was > 10 µM.

Q: For `COc1cc(-c2cc(-c3cc4c([nH]c5ccccc54)c(-c4cc(OC)c(OC)c(OC)c4)n3)cc(-c3ccccc3)n2)cc(OC)c1OC`, which GI50 is on record?
A: The GI50 was 4.02 µM.

Q: What about the TGI of the same compound?
A: The TGI was > 100 µM.

Q: `O=C1C=CC(=O)c2cc3cc(CBr)ccc3cc21` was tested. Which GI50 did it give?
A: Its GI50 is 0.606 µM.

Q: What about the TGI of the same compound?
A: Its TGI is 1.89 µM.

Q: Which results are given for `COc1cc(F)ccc1-c1ncnc(Nc2cccc(CS(C)(=N)=O)c2)n1` (stereo not drawn)?
A: GI50: 0.421 µM; TGI: > 100 µM

Q: Which TGI does the source give for `Cc1c2c(C#N)nccc2c(C)c2c1c1ccccc1n2Cc1ccccc1` here?
A: The TGI was > 100 µM.

Q: What does the source list for `CCOC(=O)Nc1ccc(-c2nc(-c3cccc(OCCN4CCOCC4)c3)c(-c3ccnc(Br)c3)[nH]2)cc1`?
A: GI50: 2.98 µM; TGI: > 100 µM

Q: What does the source list for `O=C(CC1(O)C(=O)N(Cc2ccccc2)c2ccc(F)cc21)c1ccc(C(=O)NCC2CCC3(CC2)OOC2(CCCCC2)OO3)cc1` (stereo not drawn)?
A: GI50: 1.36 µM; TGI: 3.29 µM

Q: `O=C(CSc1nc2ccccc2nc1-c1ccccc1)Nc1ccc(F)cc1` was tested. Which GI50 did it give?
A: Its GI50 is 14.1 µM.

Q: What about the TGI of the same compound?
A: The TGI was 28.7 µM.

Q: What does the source list for `Cn1cc(-c2csc(-c3c[nH]c4ccc(F)cc34)n2)c2cnccc21`?
A: GI50: 1.22 µM; TGI: 2.56 µM

System: LOX IMVI melanoma
Assay: NCI tumour cell line growth inhibition, 48 h

Q: For `CN(C)CC[PH+](c1ccccc1)c1ccccc1.CN(C)CC[PH+](c1ccccc1)c1ccccc1.[Cl-].[Pd+2]`, which GI50 is on record?
A: The GI50 was > 100 µM.

Q: What about the TGI of the same compound?
A: The TGI was > 100 µM.

Q: Which TGI does the source give for `O=C(O)Cc1cc(Cl)ccc1O` here?
A: The TGI was > 100 µM.

Q: What does the source list for `Cc1nn(-c2ccc(Cl)cc2)c2nc3c(nc12)C(=O)c1ccccc1-3`?
A: GI50: > 100 µM; TGI: > 100 µM

Q: `O=C(c1ccccc1)c1cc2ccccc2o1` was tested. Which GI50 did it give?
A: Its GI50 is 73.6 µM.

Q: What about the TGI of the same compound?
A: Its TGI is > 100 µM.

Q: Which GI50 does the source give for `COc1ccc(C(=O)/C=C/c2cc(-c3cc(OC)c(OC)c(OC)c3)n[nH]2)cc1OC` here?
A: The GI50 was 1.38 µM.

Q: What about the TGI of the same compound?
A: The TGI was 2.76 µM.

Q: `C=C(C)[C@@H]1CC[C@]2(C)[C@H](CC=C3[C@@H]4CC(C)(C)CC[C@]4(C(N)=O)CC[C@]32C)[C@@]1(C)CCC#N` was tested. Which GI50 did it give?
A: The GI50 was 3.69 µM.

Q: What about the TGI of the same compound?
A: Its TGI is > 100 µM.

Q: For `CCCC(=O)Nc1cc2c3c(c1)CCCN3CCC2`, which TGI is on record?
A: The TGI was > 10 µM.

Q: How did the GI50 turn out when `COc1cc(-c2cc(-c3cc4c([nH]c5ccccc54)c(-c4cc(OC)c(OC)c(OC)c4)n3)cc(-c3ccccc3)n2)cc(OC)c1OC` was run?
A: Its GI50 is 4.42 µM.

Q: What about the TGI of the same compound?
A: Its TGI is 26.5 µM.

Q: Which results are given for `O=C1C=CC(=O)c2cc3cc(CBr)ccc3cc21`?
A: GI50: 1.44 µM; TGI: 3.02 µM

Q: `COc1cc(F)ccc1-c1ncnc(Nc2cccc(CS(C)(=N)=O)c2)n1` (stereo not drawn) was tested. Which GI50 did it give?
A: The GI50 was 0.373 µM.

Q: And the TGI?
A: The TGI was > 100 µM.

Q: With `Cc1c2c(C#N)nccc2c(C)c2c1c1ccccc1n2Cc1ccccc1` as the compound, how does the TGI read?
A: The TGI was > 100 µM.

Q: Which results are given for `O=C(CC1(O)C(=O)N(Cc2ccccc2)c2ccc(F)cc21)c1ccc(C(=O)NCC2CCC3(CC2)OOC2(CCCCC2)OO3)cc1` (stereo not drawn)?
A: GI50: 0.0771 µM; TGI: 0.222 µM

Q: Which results are given for `O=C(CSc1nc2ccccc2nc1-c1ccccc1)Nc1ccc(F)cc1`?
A: GI50: 68 µM; TGI: > 100 µM

System: MOLT-4 leukemia
Assay: NCI tumour cell line growth inhibition, 48 h

Q: `Cc1nn(-c2ccc(Cl)cc2)c2nc3c(nc12)C(=O)c1ccccc1-3` was tested. Which GI50 did it give?
A: Its GI50 is > 100 µM.

Q: And the TGI?
A: The TGI was > 100 µM.

Q: With `COc1ccc(C(=O)/C=C/c2cc(-c3cc(OC)c(OC)c(OC)c3)n[nH]2)cc1OC` as the compound, how does the GI50 read?
A: The GI50 was 2.11 µM.

Q: What about the TGI of the same compound?
A: Its TGI is 5.56 µM.

Q: For `COc1cc(-c2cc(-c3cc4c([nH]c5ccccc54)c(-c4cc(OC)c(OC)c(OC)c4)n3)cc(-c3ccccc3)n2)cc(OC)c1OC`, which GI50 is on record?
A: The GI50 was 4.09 µM.

Q: What about the TGI of the same compound?
A: The TGI was 41.9 µM.

Q: For `COc1cc(F)ccc1-c1ncnc(Nc2cccc(CS(C)(=N)=O)c2)n1` (stereo not drawn), which GI50 is on record?
A: Its GI50 is 2.01 µM.

Q: And the TGI?
A: The TGI was 7.06 µM.

Q: For `CCOC(=O)Nc1ccc(-c2nc(-c3cccc(OCCN4CCOCC4)c3)c(-c3ccnc(Br)c3)[nH]2)cc1`, which GI50 is on record?
A: Its GI50 is 2.23 µM.

Q: What about the TGI of the same compound?
A: Its TGI is > 100 µM.

System: NCI-H226 lung
Assay: NCI tumour cell line growth inhibition, 48 h

Q: Which results are given for `CN(C)CC[PH+](c1ccccc1)c1ccccc1.CN(C)CC[PH+](c1ccccc1)c1ccccc1.[Cl-].[Pd+2]`?
A: GI50: > 100 µM; TGI: > 100 µM

Q: Which TGI does the source give for `O=C(O)Cc1cc(Cl)ccc1O` here?
A: Its TGI is > 100 µM.

Q: How did the GI50 turn out when `Cc1nn(-c2ccc(Cl)cc2)c2nc3c(nc12)C(=O)c1ccccc1-3` was run?
A: The GI50 was 25.6 µM.

Q: What about the TGI of the same compound?
A: Its TGI is > 100 µM.

Q: Which GI50 does the source give for `O=C(c1ccccc1)c1cc2ccccc2o1` here?
A: The GI50 was > 100 µM.

Q: And the TGI?
A: Its TGI is > 100 µM.
